Measurements as given in US20210378992A1, “METHODS FOR TREATING A SUBTYPE OF SMALL CELL LUNG CANCER” (Auransa Inc., priority 2018, published 2021).

Experiments:
[1] = test system: human small cell lung cancer sample LU5243; test: In vivo patient derived xenograft (PDX) study, LU5243 (predicted responder); design: species or system mice; conditions: pentamidine 10 or 20 mg/kg IP QD, FIGS. 1 and 2
Protocol: 50 mice were enrolled in the study. 25 mice were randomly allocated to each of two human small cell lung cancer tumor models: LU5181 and LU5243. […] However, expression profile of human LU5243, another SCLC tumor sample, successfully matched with the predicted gene expression signature for pentamidine (e.g., as described above, and in Table 1 and Table 2).
Randomization of the 50 mice was performed using the multi-task method in the Study Log software on day 0. Average tumor volume (mm^3) for each group ±SD at randomization was as follows. […]
Tumor cryovials containing tumor cells were thawed and prepared for inoculation into mice. Cells were washed in PBS, counted, and re-suspended in cold PBS at concentrations of 100,000 viable cells/100 μL. […]
Mice were monitored weekly for palpable tumors, or any changes in appearance or behavior. Once tumors were palpable, they were measured twice a week using calipers. Tumor volume was calculated using the following equation (longest diameter×shortest diameter^2)/2.
Stock solution of pentamidine was made in water at 10 mg/mL. Amount needed for dosing for one week was calculated and was diluted with PBS. […]
Body weight was measured twice a week. […]
For all animals, tumors were collected, weighed, weight recorded and snap frozen. […]

[2] = test system: biomarker genes of Tables 1, 2 and 3 (INSM1, GADD45G, C1QL1, STAT6, SMAD3, RNF43 and others); test: Biomarker gene expression after dosing of pentamidine in human SCLC PDX study; format: in vivo, mice; conditions: SCLC subtype sensitive to pentamidine
Description: A computational model was constructed to identify patient subpopulations of small cell lung cancer, leveraging data from 5 different datasets of treatment-naïve human small cell lung cancer biopsies (Gene Expression Omnibus identifiers GSE30219, GSE43346, GSE50451; George et al. (2015) Nature 524:47-53; and Rudin et al. (2012) Nat. Genet. 44:1111-1116). Pentamidine was a strong match to one SCLC subpopulation identified by the model. Potential biomarker genes for each subpopulation were discovered using another modeling approach. […] Among the 41 genes (see Tables 1, 2 and 3), the following six genes were selected for further study: INSM1, GADD45G, C1QL1, STAT6, SMAD3 and RNF43.
For all animals, tumors were collected, weighed, weight recorded and snap frozen. Blood for plasma isolation was taken from each animal at 4 hours after dosing. All samples collected from this study were stored in −80° C. For Group01-03, any time that an animal has to be taken down prior to normal end of study termination, the animal was dosed and sampled 4 hours after the dose was given. For group04, tumors were collected 4 hours after the third dose was given. Tumors were weighed and snap-frozen.

N=C(N)c1ccc(OCCCCCOc2ccc(C(=N)N)cc2)cc1 [Pentamidine, 1,5-Bis(4-amidinophenoxy)pentane]
efficacy in PDX model (tumor volume) [1]: significant efficacy
expression of genes in Table 1 (INSM1, GADD45G, C1QL1) upon treatment with pentamidine ([2]; high expression biomarkers): repressed nearly to normal levels
expression of genes in Table 2 (STAT6, SMAD3, RNF43) upon treatment with pentamidine ([2]; low expression biomarkers): increased nearly to normal levels
